Measurements from paper PMC3741380, “The N-Terminally Truncated µ3 and µ3-Like Opioid Receptors Are Transcribed from a Novel Promoter Upstream of Exon 2 in the Human OPRM1 Gene” (PLoS ONE, 2013).

Molecular target: T1, hMOR-1 (Homo sapiens, UniProt P35372)
T1 construct: gene OPRM1; classical 7TM splice variant, C-terminal GFP fusion kept (pcDNA3-GFP), stably expressed in HEK 293 cells
Assay: cell-based
Text: inhibition of forskolin-stimulated cAMP accumulation, [3H]-cAMP competition assay on hMOR-1

T1 sequence (P35372 whole entry, the tested form may be a part, canonical isoform): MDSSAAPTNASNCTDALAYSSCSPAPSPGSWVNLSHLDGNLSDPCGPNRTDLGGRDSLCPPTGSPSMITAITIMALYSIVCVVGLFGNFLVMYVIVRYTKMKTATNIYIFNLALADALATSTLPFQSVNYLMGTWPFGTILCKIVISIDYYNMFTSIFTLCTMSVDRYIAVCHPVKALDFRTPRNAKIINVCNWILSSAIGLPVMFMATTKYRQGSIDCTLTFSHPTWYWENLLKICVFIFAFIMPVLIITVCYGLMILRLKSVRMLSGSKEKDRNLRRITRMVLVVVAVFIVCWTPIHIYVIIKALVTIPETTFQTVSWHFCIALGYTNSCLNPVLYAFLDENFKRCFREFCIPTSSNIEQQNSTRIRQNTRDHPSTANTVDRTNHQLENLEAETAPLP

`CN1CC[C@]23c4c5ccc(O)c4O[C@H]2[C@@H](O[C@@H]2O[C@H](C(=O)O)[C@@H](O)[C@H](O)[C@H]2O)C=C[C@H]3[C@H]1C5` [M6G] was tested, and the IC50 was 27.3 ± 11.2 nM.
